# Key:
# KV7.2-W236L = target: T1, KV7.2-W236L (Homo sapiens, UniProt O43526, W236L); test: Two-electrode voltage-clamp of mutant KV7.2-W236L in Xenopus laevis oocytes; format: cell-based
# T1 construct: expressed in transfected cells; host or cells: Xenopus laevis oocytes injected with cRNA (pGEM-HE vector)
# Description: (§1) Point mutations were introduced using mutated oligonucleotide extension (PfuTurbo Polymerase, Stratagene, La Jolla, CA, USA) from a plasmid template harboring the cDNA of interest, digested with DpnI (Fermentas, St. Leon-Roth, Germany) and transformed into E.coli XL1 Blue cells. The construct was verified by complete DNA sequencing of the cDNA insert. cRNA was prepared from linearized human wild-type (WT) and mutant KV7 channels in the pGEM-HE vector using the T7 m-Message Machine kit (Ambion, Austin, TX, USA) according to the manufacturer's instructions.
# (§2) Extraction of Xenopus laevis oocytes and injection of cRNA was performed as described previously. Oocytes were kept in Modified Barth's Saline (in mM: 88 NaCl, 1 KCl, 2.4 NaHCO3, 0.41 CaCl2, 0.82 MgSO4, 0.3 Ca(NO3)2, 15 HEPES, pH 7.4 supplemented with 100 U/mL penicillin and 100 µg/mL streptomycin) at 18°C, and currents were recorded after 2-7 days. The care of Xenopus laevis and the oocyte extraction procedure were performed according to national guidelines and approved by the Danish Animal Experiments Inspectorate.
# (§3) KV7 currents in Xenopus laevis oocytes were recorded using two-electrode voltage-clamp at room temperature in Ringer buffer (in mM: 115 NaCl, 2.5 KCl, 1.8 CaCl2, 0.1 MgCl2, 10 HEPES, pH 7.4) as described previously. Data was acquired using pCLAMP 10.2 software (Molecular Devices, CA, USA) and analyzed using pCLAMP 10.2 and GraphPad Prism 4.0 (GraphPad Software Inc., CA, USA). Currents were elicited from a holding potential of −80 mV by 5 s steps to potentials between −100 and +50 mV in 10 mV increments, followed by a 2 s step to −120 mV.
# SMB-1 was dissolved in dimethyl sulfoxide (DMSO) to obtain a concentrated stock solution. On the day of experiments the stock solution was thawed and diluted in Ringer buffer to the final concentrations. A concentration of 10 µM SMB-1 was used unless indicated otherwise. The final DMSO concentration never exceeded 0.1%.
# Current – voltage (I–V) relationship curves were generated by normalizing the steady-state peak current measured at potentials between −100 and +50 mV to the current measured at +50 mV in control recordings and plotting the values against the test potential.
# The voltage-dependence of activation was determined from tail current analysis using the current measured immediately after the transient capacitive current after stepping to −120 mV from potentials between −100 mV and +50 mV. Data was normalized to extend from 0–1 and the tail current-voltage relationship was fitted to the Boltzmann equation: [drawing 1] (Equation\;1) where I max is the maximum tail current, I min is the minimum tail current, V0.5 is the potential for half maximal activation and k is the slope factor. A V0.5 was calculated for each individual experiment and statistical significance was estimated by paired two-tailed Student's t-test.
# Activation kinetics for KV7.2 and KV7.2-W236L was determined by fitting the traces recorded at potentials between −40 and +40 mV to a double exponential function: [drawing 2] (Equation\;2) where I(t) is the current at time t, Ifast and Islow are the current amplitudes at infinite times, and τfast and τslow are the time constants of the fast and slow components, respectively.
# For investigation of deactivation kinetics the tail current traces recorded at −120 mV when stepping from the channels' respective ∼V0.5 were fitted to a single exponential function (Eq. 3).
# KV7.4-L305V = target: T2, KV7.4-L305V (Homo sapiens, UniProt P56696, L305V); test: Two-electrode voltage-clamp of mutant KV7.4-L305V in Xenopus laevis oocytes; format: cell-based; conditions: 10 µM SMB-1, +50 mV, n = 6; read-out: current amplitude, % of control
# T2 construct: expressed in transfected cells; host or cells: Xenopus laevis oocytes injected with cRNA (pGEM-HE vector)
# T2 sequence (P56696 1-695 L305V): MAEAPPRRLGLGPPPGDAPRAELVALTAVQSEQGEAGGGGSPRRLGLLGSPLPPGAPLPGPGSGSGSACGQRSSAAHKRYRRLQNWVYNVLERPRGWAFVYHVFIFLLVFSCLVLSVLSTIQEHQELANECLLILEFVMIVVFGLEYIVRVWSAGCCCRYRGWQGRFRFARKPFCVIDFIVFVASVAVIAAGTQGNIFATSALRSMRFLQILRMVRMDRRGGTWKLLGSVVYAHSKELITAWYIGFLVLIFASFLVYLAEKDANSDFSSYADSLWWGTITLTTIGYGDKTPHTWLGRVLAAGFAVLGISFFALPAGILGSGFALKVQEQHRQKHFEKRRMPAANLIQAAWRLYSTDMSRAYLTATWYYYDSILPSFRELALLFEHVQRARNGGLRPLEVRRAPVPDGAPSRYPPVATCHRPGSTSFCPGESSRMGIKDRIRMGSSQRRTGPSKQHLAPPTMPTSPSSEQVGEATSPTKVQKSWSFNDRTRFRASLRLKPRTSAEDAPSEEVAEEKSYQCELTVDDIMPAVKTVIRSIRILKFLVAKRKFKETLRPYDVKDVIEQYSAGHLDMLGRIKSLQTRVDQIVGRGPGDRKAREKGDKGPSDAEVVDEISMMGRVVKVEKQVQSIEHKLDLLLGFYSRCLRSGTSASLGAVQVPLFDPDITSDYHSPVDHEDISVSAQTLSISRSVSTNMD
# Description: as §1
# as §2, with “The care of Xenopus laevis and the oocyte extraction procedure were performed according to national guidelines and approved by the Danish Animal Experiments Inspectorate.” left out
# as §3, with “Currents were elicited from a holding potential of −80 mV by 5 s steps to potentials between −100 and +50 mV in 10 mV increments, followed by a 2 s step to −120 mV.” left out
# [1] = Free fraction by equilibrium dialysis, rat brain homogenate; format: in vitro ADME; conditions: equilibrium dialysis 37°C 5 h, mean ± S.E.M., n = 3
# Description: The bidirectional permeability (Papp) of SMB-1 was examined in an MDCK cell system expressing human MDR1 [ABCB1, P-glycoprotein (P-gp)] as described previously. Permeation of the test compound from apical (A) to basal (B) direction or B to A direction was determined in triplicate over a 150-min incubation at 37°C. The efflux ratio was calculated as the ratio between Papp (B to A) and Papp (A to B). Free fraction of SMB-1 was determined using a standard equilibrium dialysis methodology with freshly isolated rat brain homogenate or plasma. Equilibrium dialysis was performed by incubating at 37°C for 5 h in triplicates.
# T1 sequence (O43526 whole entry W236L): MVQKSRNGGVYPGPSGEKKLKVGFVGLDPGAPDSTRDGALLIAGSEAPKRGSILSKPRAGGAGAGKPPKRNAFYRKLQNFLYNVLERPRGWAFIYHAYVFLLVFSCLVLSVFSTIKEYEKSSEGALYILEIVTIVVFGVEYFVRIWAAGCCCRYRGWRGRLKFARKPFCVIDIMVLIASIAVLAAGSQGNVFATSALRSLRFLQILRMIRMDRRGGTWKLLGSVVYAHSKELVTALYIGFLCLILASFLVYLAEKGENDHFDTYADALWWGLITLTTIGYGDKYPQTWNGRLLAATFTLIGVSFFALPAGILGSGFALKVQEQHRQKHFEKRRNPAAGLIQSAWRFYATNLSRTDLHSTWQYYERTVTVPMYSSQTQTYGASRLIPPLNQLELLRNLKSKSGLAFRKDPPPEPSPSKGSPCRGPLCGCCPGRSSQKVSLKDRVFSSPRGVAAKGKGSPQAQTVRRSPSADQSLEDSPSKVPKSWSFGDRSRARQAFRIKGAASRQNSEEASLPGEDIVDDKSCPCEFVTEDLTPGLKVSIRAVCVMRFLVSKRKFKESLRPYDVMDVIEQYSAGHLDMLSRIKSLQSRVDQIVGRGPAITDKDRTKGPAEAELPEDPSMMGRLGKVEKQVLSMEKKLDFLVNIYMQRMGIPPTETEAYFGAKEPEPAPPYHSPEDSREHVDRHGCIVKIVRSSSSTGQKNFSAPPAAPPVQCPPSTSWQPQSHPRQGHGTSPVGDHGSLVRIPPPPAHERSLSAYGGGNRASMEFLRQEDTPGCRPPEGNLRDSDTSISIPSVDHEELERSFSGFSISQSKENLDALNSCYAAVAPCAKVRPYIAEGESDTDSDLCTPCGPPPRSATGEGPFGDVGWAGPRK
smiles,measurement,setting,value
"C[C@@H](c1ccc2c(c1)N(CC1CC1)CCO2)N(C)C(=O)/C=C/c1ccccc1F [SMB-1, (E)-N-[(S)-1-(4-Cyclopropylmethyl-3,4-dihydro-2H-1,4-benzoxazin-6-yl)-ethyl]-3-(2-fluoro-phenyl)-N-methyl-acrylamide]",effect on τact_fast,KV7.2-W236L; 10 µM,no significant effect
same,remaining activity at 10 µM,"KV7.2-W236L; 10 µM SMB-1, +50 mV, n = 6, read-out: current amplitude, % of control",68.8 ± 3.9%
same,effect on τact_slow,"KV7.2-W236L; 10 µM, at potentials above −20 mV",significantly increased
same,"τdeact, deactivation time constant in presence of compound","KV7.2-W236L; 10 µM, control 23.3±2.9 ms, n = 6, p<0.05",27.0 ± 3.0 ms
same,"V0.5, voltage-dependence of activation in presence of compound","KV7.2-W236L; 10 µM, control −27.1±2.4 mV, n = 4, p = 0.2",−15.0±10.1 mV
same,remaining activity at 10 µM,KV7.4-L305V,101 ± 10.3%
same,fraction unbound at 5 h,[1],0.001 ± 0.001

# Source: article PMC4067310, “From Pan-Reactive KV7 Channel Opener to Subtype Selective Opener/Inhibitor by Addition of a Methyl Group” (PLoS ONE, 2014)
